Measured values: patent US20140051706A1 (PRISM PHARMA CO., LTD., priority 2011, published 2014)

Experiment: Plasma stability test
Format: in vitro ADME
Conditions: human fresh plasma; read-out: ½t (plasma half-life)
Procedure: In the tables mentioned below, data indicated by “½t” means data of plasma half-life (minutes) is determined by plasma stability test that mentioned below.
Determination of Plasma half life was carried out according to the following procedure using the fresh plasma.
1. 0.025 mg/mL spiking solution A: add 10 μL of 0.5 mg/mL stock solution to 190 μL of DMSO. 2. Add 90 μL of plasma into the wells designated for all the time points (0, 5, 10, 30, 60, 90, 120, 240 min). 3. Add 10 μL of pre-warmed spiking solution A into the wells designated for all the time points (0, 5, 10, 30, 60, 90, 120, 240 min). Immediately, add 400 μL of ACN containing IS into the wells designated for 0 min, then start timing. 4. At 5, 10, 30, 60, 90, 120, 240 min, add 400 μL of ACN containing IS into the wells, respectively. 5. Protein is precipitated by centrifugation (4000 rpm, 15 min). 6. Transfer 50 μL of supernatant into 50 μL of ultra-pure water (Millipore) in a 96-well sample plate for LC-MS/MS analysis.

Structure (SMILES) | half-life at 2.5 µg/mL
CCCCCCCCC(=O)Oc1ccc(C[C@H]2C(=O)N(Cc3cccc4cccnc34)[C@@H](C)C3N2C(=O)CN(C)N3C(=O)NCc2ccccc2)cc1 (stereo partly drawn) [Example I-3, 4-(((6S,9S)-1-(benzylcarbamoyl)-2,9-dimethyl-4,7-dioxo-8-(quinolin-8-ylmethyl)octahydro-1H-pyrazino[2,1-c][1,2,4]triazin-6-yl)methyl)phenyl nonanoate] | 2.77 h
CC(=O)Oc1ccc(C[C@H]2C(=O)N(Cc3cccc4cccnc34)[C@@H](C)C3N2C(=O)CN(C)N3C(=O)NCc2ccccc2)cc1 (stereo partly drawn) [Example I-1, 4-(((6S,9S)-1-(benzylcarbamoyl)-2,9-dimethyl-4,7-dioxo-8-(quinolin-8-ylmethyl)octahydro-1H-pyrazino[2,1-c][1,2,4]triazin-6-yl)methyl)phenyl acetate] | 0.733 h
CCCCC(=O)Oc1ccc(C[C@H]2C(=O)N(Cc3cccc4cccnc34)[C@@H](C)C3N2C(=O)CN(C)N3C(=O)NCc2ccccc2)cc1 (stereo partly drawn) [Example I-2, 4-(((6S,9S)-1-(benzylcarbamoyl)-2,9-dimethyl-4,7-dioxo-8-(quinolin-8-ylmethyl)octahydro-1H-pyrazino[2,1-c][1,2,4]triazin-6-yl)methyl)phenyl pentanoate] | 2.75 h
